Data as given in US10626144B2, “Peptide derivatives and uses thereof” (Nosopharm, priority 2014, dated 2020).
Numbered stars: 1 amine (or outer) side, 2 acyl side, 3 side chain; on linkers, the order of the positions; unused ones are H or OH. Square brackets hold non-standard residues; d marks the D form. Peptide text beside a SMILES is read from it. * marks the point of attachment. X3 = NC[C@H](OC(=O)C(F)(F)F)[C@H](N[*:1])C(=O)[*:2]; Phe(3-CONH2) = NC(=O)c1cccc(C[C@H](N)C(=O)O)c1; Phe(4-COOH) = N[C@@H](Cc1ccc(C(=O)O)cc1)C(=O)O; Phe(3-F) = N[C@@H](Cc1cccc(F)c1)C(=O)O; Dab(3S-OH) = NC[C@H](O)[C@H](N)C(=O)O; X5 = O=C(C(N[*:1])c1cccs1)[*:2]; ΔZArg = N=C(N)NCC/C=C(\N)C(=O)O; Lys(Me) = CNCCCC[C@H](N)C(=O)O; dOrn = NCCC[C@@H](N)C(=O)O; Orn = NCCC[C@H](N)C(=O)O; Nva = CCC[C@H](N)C(=O)O; NH(CH2)4NH2 = NCCCCN*; NHiPr = CC(C)N*

Columns and labels:
Assay in all cases: MIC, broth microdilution (CLSI), reference strain
Conditions in all cases: CAMHB
[1] = tested on: Acinetobacter baumannii ATCC 19606
[2] = tested on: Escherichia coli ATCC 25922
[3] = tested on: Pseudomonas aeruginosa ATCC 27853
[4] = tested on: Staphylococcus aureus ATCC 13709

Compound	Ab: MIC Acinetobacter baumannii ATCC 19606 [1]	Ec: MIC Escherichia coli ATCC 25922 [2]	Pa: MIC Pseudomonas aeruginosa ATCC 27853 [3]	Sa: MIC Staphylococcus aureus ATCC 13709 [4]
CNCCCC[C@H](N)C(=O)N[C@H](C(=O)N[C@@H](C)C(=O)NCC(=O)N[C@H](CCCN)C(=O)N1CCC[C@H]1C(=O)N[C@@H](Cc1cnc[nH]1)C(=O)N[C@@H](CCCCN)C(=O)N/C(=C\CCNC(=N)N)C(=O)O)[C@@H](O)CN [24.149] (H-[Lys(Me)][Dab(3S-OH)]AG[dOrn]PHK[ΔZArg]-OH)	− (>32 μg/mL)	+ (≤32 μg/mL)	− (>32 μg/mL)	+ (≤32 μg/mL)
C[C@H](NC(=O)[C@@H](NC(=O)[C@@H](N)CCCN)[C@@H](O)CN)C(=O)NCC(=O)N[C@H](CCCN)C(=O)N1CCC[C@H]1C(=O)N[C@@H](Cc1cnc[nH]1)C(=O)N[C@@H](CCCCN)C(=O)N/C(=C\CCNC(=N)N)C(N)=O [24.150] (H-[Orn][Dab(3S-OH)]AG[dOrn]PHK[ΔZArg]-NH2)	− (>32 μg/mL)	+ (≤32 μg/mL)	− (>32 μg/mL)	++ (≤8 μg/mL)
CNCCCC[C@H](NC(=O)[C@H](Cc1cnc[nH]1)NC(=O)[C@@H]1CCCN1C(=O)[C@@H](CCCN)NC(=O)CNC(=O)[C@H](C)NC(=O)[C@@H](NC(=O)[C@@H](N)CCCCN)[C@@H](O)CN)C(=O)N[C@H](CCCNC(=N)N)C(N)=O [24.155] (H-K[Dab(3S-OH)]AG[dOrn]PH[Lys(Me)][dR]-NH2)	− (>32 μg/mL)	− (>32 μg/mL)	− (>32 μg/mL)	++ (≤8 μg/mL)
C[C@H](NC(=O)[C@@H](NC(=O)[C@@H](N)CCCCN)[C@@H](O)CN)C(=O)NCC(=O)N[C@H](CCCN)C(=O)N1CCC[C@H]1C(=O)NC(C(=O)N[C@@H](CCCCN)C(=O)N/C(=C\CCNC(=N)N)C(=O)O)c1cccs1 (stereo partly drawn) [24.157] (H-K[Dab(3S-OH)]AG[dOrn]P[X5]K[ΔZArg]-OH)	− (>32 μg/mL)	− (>32 μg/mL)	− (>32 μg/mL)	+ (≤32 μg/mL)
C[C@H](NC(=O)[C@@H](NC(=O)[C@@H](N)CCCCN)[C@@H](O)CN)C(=O)NCC(=O)N[C@H](CCCN)C(=O)N1CCC[C@H]1C(=O)N[C@@H](C)C(=O)N[C@@H](CCCCN)C(=O)N/C(=C\CCNC(=N)N)C(=O)O [24.158] (H-K[Dab(3S-OH)]AG[dOrn]PAK[ΔZArg]-OH)	− (>32 μg/mL)	− (>32 μg/mL)	− (>32 μg/mL)	+ (≤32 μg/mL)
COC(=O)/C(=C/CCNC(=N)N)NC(=O)[C@H](CCCCN)NC(=O)[C@H](Cc1cnc[nH]1)NC(=O)[C@@H]1CCCN1C(=O)[C@@H](CCCN)NC(=O)CNC(=O)[C@H](C)NC(=O)[C@@H](NC(=O)[C@@H](N)CCCCN)[C@@H](O)CN [24.160] (H-K[Dab(3S-OH)]AG[dOrn]PHK[ΔZArg]-OMe)	− (>32 μg/mL)	++ (≤8 μg/mL)	− (>32 μg/mL)	++ (≤8 μg/mL)
C[C@H](NC(=O)[C@@H](NC(=O)[C@@H](N)CCCCN)[C@@H](O)CN)C(=O)NCC(=O)N[C@H](CCCN)C(=O)N1CCC[C@H]1C(=O)N[C@@H](Cc1ccc(C(=O)O)cc1)C(=O)N[C@@H](CCCCN)C(=O)N/C(=C\CCNC(=N)N)C(=O)O [24.161] (H-K[Dab(3S-OH)]AG[dOrn]P[Phe(4-COOH)]K[ΔZArg]-OH)	− (>32 μg/mL)	++ (≤8 μg/mL)	− (>32 μg/mL)	++ (≤8 μg/mL)
CC(C)NC(=O)/C(=C/CCNC(=N)N)NC(=O)[C@H](CCCCN)NC(=O)[C@H](Cc1cnc[nH]1)NC(=O)[C@@H]1CCCN1C(=O)[C@@H](CCCN)NC(=O)CNC(=O)[C@H](C)NC(=O)[C@@H](NC(=O)[C@@H](N)CCCCN)[C@@H](O)CN [24.162] (H-K[Dab(3S-OH)]AG[dOrn]PHK[ΔZArg]-NHiPr)	− (>32 μg/mL)	+ (≤32 μg/mL)	− (>32 μg/mL)	++ (≤8 μg/mL)
C[C@@H](O)[C@H](NC(=O)[C@@H](NC(=O)[C@@H](N)CCCCN)[C@@H](O)CN)C(=O)NCC(=O)N[C@H](CCCN)C(=O)N1CCC[C@H]1C(=O)N[C@@H](Cc1cnc[nH]1)C(=O)N[C@@H](CCCCN)C(=O)N/C(=C\CCNC(=N)N)C(=O)O [25.3] (H-K[Dab(3S-OH)]TG[dOrn]PHK[ΔZArg]-OH)	− (>32 μg/mL)	+ (≤32 μg/mL)	− (>32 μg/mL)	+ (≤32 μg/mL)
N=C(N)NCC/C=C(\NC(=O)[C@H](CCCCN)NC(=O)[C@H](Cc1cnc[nH]1)NC(=O)[C@@H]1CCCN1C(=O)[C@@H](CCCN)NC(=O)CNC(=O)[C@H](CO)NC(=O)[C@@H](NC(=O)[C@@H](N)CCCCN)[C@@H](O)CN)C(=O)N[C@@H](CCCCN)C(=O)NCCCCN [26.1] (H-K[Dab(3S-OH)]SG[dOrn]PHK[ΔZArg]K-{NH(CH2)4NH2})	+ (≤32 μg/mL)	++ (≤8 μg/mL)	++ (≤8 μg/mL)	++ (≤8 μg/mL)
N=C(N)NCC/C=C(\NC(=O)[C@H](CCCCN)NC(=O)[C@H](Cc1cnc[nH]1)NC(=O)[C@@H]1CCCN1C(=O)[C@@H](CCCN)NC(=O)CNC(=O)[C@H](CO)NC(=O)[C@@H](NC(=O)[C@@H](N)CCCCN)[C@@H](O)CN)C(=O)O [26.2] (H-K[Dab(3S-OH)]SG[dOrn]PHK[ΔZArg]-OH)	− (>32 μg/mL)	+ (≤32 μg/mL)	− (>32 μg/mL)	+ (≤32 μg/mL)
CC(C)C[C@H](NC(=O)[C@@H](NC(=O)[C@@H](N)CCCCN)[C@@H](O)CN)C(=O)NCC(=O)N[C@H](CCCN)C(=O)N1CCC[C@H]1C(=O)N[C@@H](Cc1cnc[nH]1)C(=O)N[C@@H](CCCCN)C(=O)N/C(=C\CCNC(=N)N)C(=O)N[C@@H](CCCCN)C(=O)NCCCCN [29.1] (H-K[Dab(3S-OH)]LG[dOrn]PHK[ΔZArg]K-{NH(CH2)4NH2})	− (>32 μg/mL)	− (>32 μg/mL)	− (>32 μg/mL)	+ (≤32 μg/mL)
N=C(N)NCC/C=C(\NC(=O)[C@H](CCCCN)NC(=O)[C@H](Cc1cnc[nH]1)NC(=O)[C@@H]1CCCN1C(=O)[C@@H](CCCN)NC(=O)CNC(=O)[C@@H](NC(=O)[C@@H](NC(=O)[C@@H](N)CCCCN)[C@H](CN)OC(=O)C(F)(F)F)[C@@H](O)CN)C(=O)N[C@@H](CCCCN)C(=O)NCCCCN [32.1] (H-K[X3][Dab(3S-OH)]G[dOrn]PHK[ΔZArg]K-{NH(CH2)4NH2})	− (>32 μg/mL)	+ (≤32 μg/mL)	− (>32 μg/mL)	++ (≤8 μg/mL)

Other lines, results leading:

Ab: MIC Acinetobacter baumannii ATCC 19606 [1]	Ec: MIC Escherichia coli ATCC 25922 [2]	Pa: MIC Pseudomonas aeruginosa ATCC 27853 [3]	Sa: MIC Staphylococcus aureus ATCC 13709 [4]	Compound
− (>32 μg/mL)	− (>32 μg/mL)	− (>32 μg/mL)	++ (≤8 μg/mL)	CCC[C@H](NC(=O)[C@@H](NC(=O)[C@@H](N)CCCCN)[C@@H](O)CN)C(=O)NCC(=O)N[C@H](CCCN)C(=O)N1CCC[C@H]1C(=O)N[C@@H](Cc1cnc[nH]1)C(=O)N[C@@H](CCCCN)C(=O)N/C(=C\CCNC(=N)N)C(=O)N[C@@H](CCCCN)C(=O)NCCCCN [210.1] (H-K[Dab(3S-OH)][Nva]G[dOrn]PHK[ΔZArg]K-{NH(CH2)4NH2})
+ (≤32 μg/mL)	++ (≤8 μg/mL)	++ (≤8 μg/mL)	++ (≤8 μg/mL)	N=C(N)NCC/C=C(\NC(=O)[C@H](CCCCN)NC(=O)[C@H](Cc1cnc[nH]1)NC(=O)[C@@H]1CCCN1C(=O)[C@@H](CCCN)NC(=O)CNC(=O)[C@H](CCCN)NC(=O)[C@@H](NC(=O)[C@@H](N)CCCCN)[C@@H](O)CN)C(=O)N[C@@H](CCCCN)C(=O)NCCCCN [211.1] (H-K[Dab(3S-OH)][Orn]G[dOrn]PHK[ΔZArg]K-{NH(CH2)4NH2})
− (>32 μg/mL)	+ (≤32 μg/mL)	− (>32 μg/mL)	++ (≤8 μg/mL)	N=C(N)NCC/C=C(\NC(=O)[C@H](CCCCN)NC(=O)[C@H](Cc1cnc[nH]1)NC(=O)[C@@H]1CCCN1C(=O)[C@@H](CCCN)NC(=O)CNC(=O)[C@H](CCCN)NC(=O)[C@@H](NC(=O)[C@@H](N)CCCCN)[C@@H](O)CN)C(=O)O [211.2] (H-K[Dab(3S-OH)][Orn]G[dOrn]PHK[ΔZArg]-OH)
− (>32 μg/mL)	++ (≤8 μg/mL)	− (>32 μg/mL)	++ (≤8 μg/mL)	N=C(N)NCC/C=C(\NC(=O)[C@H](CCCCN)NC(=O)[C@H](Cc1cccc(C(N)=O)c1)NC(=O)[C@@H]1CCCN1C(=O)[C@@H](CCCN)NC(=O)CNC(=O)[C@H](CCCN)NC(=O)[C@@H](NC(=O)[C@@H](N)CCCCN)[C@@H](O)CN)C(=O)O [211.3] (H-K[Dab(3S-OH)][Orn]G[dOrn]P[Phe(3-CONH2)]K[ΔZArg]-OH)
− (>32 μg/mL)	++ (≤8 μg/mL)	− (>32 μg/mL)	++ (≤8 μg/mL)	N=C(N)NCC/C=C(\NC(=O)[C@H](CCCCN)NC(=O)[C@H](Cc1cccc(F)c1)NC(=O)[C@@H]1CCCN1C(=O)[C@@H](CCCN)NC(=O)CNC(=O)[C@H](CCCN)NC(=O)[C@@H](NC(=O)[C@@H](N)CCCCN)[C@@H](O)CN)C(=O)O [211.4] (H-K[Dab(3S-OH)][Orn]G[dOrn]P[Phe(3-F)]K[ΔZArg]-OH)
